A short description of data set [1]: Lyophilisation solubility assay (Lysa). Type of data set: physicochemical. The following applies: thermodynamic from solid. As for the experimental part: The aqueous solubility is an important physico-chemical property that plays a significant role in various physical and biological processes. It is desirable to have good solubility which enables good permeability and gastric and intestinal absorption, linear dose proportionality, less PK variability, and easy formulation for PD/PK studies. […] Lyophilisation solubility assay (Lysa) is a well adopted high throughput assay to measure compound solubility in industry.
Samples are prepared in duplicate from 10 mM DMSO stock solutions. After evaporation of DMSO with a centrifugal vacuum evaporator, the residue is solved in 0.05 M phosphate buffer (pH 6.5), stirred for one hour and then shook for two hours. After one night, the solution is filtered using a microtiter filter plate and then the filtrate and its 1/10 dilution are then analyzed by direct UV measurement or by HPLC-UV. In addition a four-point calibration curve is prepared from the 10 mM stock solutions and used for the solubility determination of the compounds. The results are in μg/ml. In case the percentage of sample measured in solution after evaporation divided by the calculated maximum of sample amount is bigger than 80% the solubility is reported as bigger than this value.

Data set [2] can be described thus: Human microsomal clearance assay. Type of data set: in vitro ADME. As for the experimental part: Microsomes were preincubated with test compound for 10 minutes at 37° C. in 100 mM phosphate buffer with pH 7.4. The reactions were initiated by adding NADPH regenerating system to give a final incubation volume of 400 μL. The incubations finally contained 1 μM test compound, 0.5 mg/mL liver microsomal protein, 3.0 mM glucose 6-phosphate, 1.0 mM NADP, 3.0 mM MgCl2 and 0.05 mg/mL glucose 6-phosphate dehydrogenase in 100 mM phosphate buffer with pH 7.4. After incubation times of 0, 3, 6, 9, 15 and 30 minutes, 50 μL, incubation was transferred to the quench solution containing the internal standard which was 2 μM tolbutamide. After precipitation and centrifugation, test compound concentrations in the samples were determined by LC-MS/MS. Controls of no NADPH regenerating system at zero and 30 minutes were also prepared and analyzed.

For data set [3], the system named is HBV replication in HepG2.2.15 cells. The data set can be described thus: Anti-HBV activity in vitro in HepG2.2.15 cells (extracellular HBV DNA by qPCR). The following applies: Hepatitis B virus, HepG2.2.15, Anti-HBV activity in HepG2.2.15 cells; read-out: EC50. Type of data set: cell-based. The procedure, abridged: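 Constitutively HBV-producing HepG2.2.15 cells were seeded overnight at 37 °C, then treated with half-log serial dilutions of compound (0.5% DMSO final) for five days. Supernatant HBV DNA was extracted and quantified by qPCR; EC50 is the concentration inhibiting HBV replication by 50%.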

The structures appear in SMILES notation. ≈ marks a conversion by molar mass, not a printed value. Like-named read-outs stand apart in the source and are kept apart here. A value given as a limit tells only on which side of the number the result lay.

A word on the EC50: it is the concentration needed to bring the measured effect to its halfway point. Consider `COC(=O)C1=C(CN2C3COCC2CC(C(=O)O)C3)NC(c2nc(C)cs2)=N[C@H]1c1ccc(F)cc1Cl` (stereo partly drawn) [Example 2, 9-[(R)-6-(2-Chloro-4-fluoro-phenyl)-5-methoxycarbonyl-2-(4-methyl-thiazol-2-yl)-3,6-dihydro-pyrimidin-4-ylmethyl]-3-oxa-9-aza-bicyclo[3.3.1]nonane-7-carboxylic acid], for which the solubility thermodynamic in data set [1] (pH 6.5, aqueous buffer) amounted to 450 µg/mL (≈ 820 µM). In addition, the CLh in data set [2] (human, 1 μM, pH 7.4) came to 3.2 mL/min/kg. The EC50 in data set [3] is 114 nM.
Take `COC(=O)C1=C(CN2C3COCC2CC(C(=O)O)C3)NC(c2nccs2)=NC1c1ccc(F)c(F)c1` (stereo not drawn) [Example 3, 9-[6-(3,4-Difluoro-phenyl)-5-methoxycarbonyl-2-thiazol-2-yl-3,6-dihydro-pyrimidin-4-ylmethyl]-3-oxa-9-aza-bicyclo[3.3.1]nonane-7-carboxylic acid]: the solubility thermodynamic in data set [1] (pH 6.5, aqueous buffer) is > 678 µg/mL. In data set [2] (human, 1 μM, pH 7.4), the CLh stood at 0 mL/min/kg. In addition, the EC50 in data set [3] amounted to 400 nM.
Take `COC(=O)C1=C(CN2C3COCC2CC(C(=O)O)C3)NC(c2nccs2)=N[C@H]1c1ccc(F)cc1Br` (stereo partly drawn) [Example 5, 9-[(R)-6-(2-Bromo-4-fluoro-phenyl)-5-methoxycarbonyl-2-thiazol-2-yl-3,6-dihydro-pyrimidin-4-ylmethyl]-3-oxa-9-aza-bicyclo[3.3.1]nonane-7-carboxylic acid]: the solubility thermodynamic in data set [1] (pH 6.5, aqueous buffer) is > 660 µg/mL. The CLh in data set [2] (human, 1 μM, pH 7.4) amounted to 0 mL/min/kg. In data set [3], the EC50 was determined as 21 nM.
As to `COC(=O)C1=C(CN2C3COCC2C(C(=O)O)C3)NC(c2nccs2)=N[C@H]1c1ccc(F)cc1Cl` (stereo partly drawn) [Example 6, 8-[(R)-6-(2-Chloro-4-fluoro-phenyl)-5-methoxycarbonyl-2-thiazol-2-yl-3,6-dihydro-pyrimidin-4-ylmethyl]-3-oxa-8-aza-bicyclo[3.2.1]octane-6-carboxylic acid], in data set [1] (pH 6.5, aqueous buffer), the solubility thermodynamic was > 665 µg/mL. In data set [2] (human, 1 μM, pH 7.4), this compound yielded a CLh of 0.5 mL/min/kg. Further, in data set [3], the EC50 was determined as 32 nM.
Consider `CCOC(=O)C1=C(CN2C3COCC2CC(CC(=O)O)C3)NC(c2nccs2)=N[C@H]1c1ccc(F)c(F)c1` (stereo partly drawn) [Example 29, (S)-6-(7-Carboxymethyl-3-oxa-9-aza-bicyclo[3.3.1]non-9-ylmethyl)-4-(3,4-difluoro-phenyl)-2-thiazol-2-yl-1,4-dihydro-pyrimidine-5-carboxylic acid ethyl ester], for which the solubility thermodynamic in data set [1] (pH 6.5, aqueous buffer) was > 600 µg/mL. In addition, in data set [2] (human, 1 μM, pH 7.4), the CLh amounted to 1.7 mL/min/kg. Further, the half-maximal effective concentration (EC50) in data set [3] is 34.3 nM.
With `COC(=O)C1=C(CN2CC3(F)CC2(C(=O)O)C3)NC(c2nccs2)=N[C@H]1c1ccc(F)cc1Cl` [Example 40, 2-[(R)-6-(2-Chloro-4-fluoro-phenyl)-5-methoxycarbonyl-2-thiazol-2-yl-3,6-dihydro-pyrimidin-4-ylmethyl]-4-fluoro-2-aza-bicyclo[2.1.1]hexane-1-carboxylic acid], in data set [1] (aqueous buffer, 0.05 M phosphate buffer (pH 6.5), reported as bigger than the value if more than 80% of the sample is in solution, read-out: Lysa), the solubility thermodynamic was > 634 µg/mL. Besides, the CLh in data set [2] (human microsomal clearance) worked out at 1.4 mL/min/kg. In addition, the EC50 in data set [3] stood at 32 nM.
For `COC(=O)C1=C(CN2[C@@H]3COC[C@H]2CC(OCC(=O)O)C3)NC(c2nccs2)=N[C@H]1c1ccc(F)cc1Cl` (stereo partly drawn) [Example 46, 2-[[(1R,5S)-9-[[(4R)-4-(2-chloro-4-fluoro-phenyl)-5-methoxycarbonyl-2-thiazol-2-yl-1,4-dihydropyrimidin-6-yl]methyl]-3-oxa-9-azabicyclo[3.3.1]nonan-7-yl]oxy]acetic acid], the solubility thermodynamic in data set [1] (pH 6.5, aqueous buffer) is > 685 µg/mL. Further, the CLh in data set [2] (human, 1 μM, pH 7.4) came to 4.0 mL/min/kg. Also, the EC50 in data set [3] amounted to 86.6 nM.
In data set [1] (pH 6.5, aqueous buffer), `COC(=O)C1=C(CN2C3COCC2CN(C(=O)CO)C3)NC(c2nccs2)=N[C@H]1c1ccc(F)cc1Br` [Example 53, Methyl (4R)-4-(2-bromo-4-fluoro-phenyl)-6-[[7-(2-hydroxyacetyl)-3-oxa-7,9-diazabicyclo[3.3.1]nonan-9-yl]methyl]-2-thiazol-2-yl-1,4-dihydropyrimidine-5-carboxylate] registered a solubility thermodynamic of 163 µg/mL (≈ 274 µM). The CLh in data set [2] (human, 1 μM, pH 7.4) turned out to be 7.0 mL/min/kg. Besides, in data set [3], the concentration giving a half-maximal response (EC50) is 16.8 nM.

These data come from patent publication US9266904B2, “6-bridged heteroaryldihydropyrimidines for the treatment and prophylaxis of hepatitis B virus infection” (priority 2013, dated 2016).
